Where two headings read alike, the source gives them in different places.
What was measured:
CDK13 = CDK13 (Homo sapiens, UniProt Q14004); assay: CDK13 kinase inhibitory activity assay (33P-ATP filter binding); format: biochemical
Method: (§1) Before initiating the CDK12 and CDK13 kinase reactions, each Example compound was dissolved and diluted in DMSO as a solvent across 9 concentration ranges at room temperature. The diluted solutions were then incubated with a mixture of kinase and substrate (and cofactors, if required) for 20 minutes. Next, radioisotope-labeled ATP (^33P-gamma-ATP) was added to proceed with the kinase reaction at room temperature for 120 minutes. After the reaction was completed, the reaction mixture was transferred to a filter paper that binds the radioisotope-labeled catalytic product (^33P-substrate). Unreacted ^33P-ATP was removed by washing with 0.75 % phosphoric acid, and then the radioactive phosphorylated substrate remaining on the filter paper was measured. Kinase activity data were expressed as a percentage of the kinase activity remaining in the test sample compared to a DMSO control group. The half-maximal inhibitory concentration (IC50) for each kinase was calculated using Prism (Graphpad) software.

[1] = test system: MDA-MB-231 breast cancer cells; assay: Proliferation inhibitory activity assay against MDA-MB-231 breast cancer cells; format: cell-based; settings: Homo sapiens, 72 hours, CellTiter Glo, relative IC50
Method: Experiments were performed using the MDA-MB-231 breast cancer cell line to measure the cell proliferation inhibitory ability of each Example compound. MDA-MB-231 cells were dispensed into a 96-well plate at 100 µL of cell suspension per well using L-15 (Invitrogen) medium containing 10 % FBS, followed by incubation in a cell incubator at 37 °C and 0 % CO2. The next day, each Example compound dissolved and diluted in DMSO across 9 concentration ranges and a DMSO control group were treated on the cells for 72 hours. After the compound treatment was completed, 100 µL of CellTiter Glo (Promega) reagent was added to each well of the 96-well plate, followed by shaking for 10 minutes and standing at room temperature for 10 minutes. Luminescence signals were measured after inserting the 96-well plate into an Envision plate reader (PerkinElmer). Relative IC50 values were calculated by fitting a dose-response curve using XLfit (IDBS Ltd) software.
The breast cancer cell proliferation inhibitory activities of the Example compounds measured by the above method were evaluated according to the following criteria, and the results are presented in Table 13.

CDK12 [2] = molecular target: T1, CDK12 (Homo sapiens, UniProt Q9NYV4); assay: CDK12 kinase inhibitory activity assay (33P-ATP filter binding); format: biochemical
Method: as §1

CDK12 [3] = molecular target: T1, CDK12; assay: Cellular CDK12 inhibitory activity assay (Ser2 phosphorylation of RNA polymerase II subunit B1 CTD in MDA-MB-231 cells); format: cell-based; set-up: using MDA-MB-231 breast cancer cells; endogenous in cells; host or cells: MDA-MB-231; settings: MDA-MB-231 cells, 6 hours treatment; read-out: pRpbl CTD S2 IC50
Method: MDA-MB-231 cells were dispensed into a 96-well plate at 100 µL of cell suspension per well using L-15 (Invitrogen) medium containing 10 % FBS, followed by overnight incubation in a cell incubator at 37 °C and 0 % CO2. The next day, each Example compound dissolved in DMSO across 9 concentration ranges and a DMSO control group were treated on the MDA-MB-231 cells at 37 °C and 0 % CO2 for 6 hours. After the compound treatment, the medium in the 96-well plate was removed, and 60 µL of a fixing solution (4.0 % paraformaldehyde in PBS) was added to each well, followed by standing for 20 minutes. After removing the fixing solution and washing with PBS, 60 µL of PBS containing 0.1 % Triton X-100 was dispensed into each well, followed by shaking at room temperature for 15 minutes. After washing with PBS, 100 µL of blocking buffer was added, followed by shaking at room temperature for 1 hour. After removing the blocking buffer, primary antibodies, which are RNA polymerase II subunit B1 phospho-Ser2 (1:500, Cell signaling technology) and RNA polymerase II subunit B1 carboxy-terminal domain (1:200, Cell signaling technology), were added at 60 µL per well and reacted overnight at 4 °C. After adding 150 µL of PBS containing 0.1 % Triton X-100 and washing at least twice by shaking at room temperature for 5 minutes, 60 µL of a secondary antibody was added, followed by shaking at room temperature for 1 hour while blocking light. After adding 150 µL of PBS containing 0.1 % Triton X-100 and washing at least twice by shaking at room temperature for 5 minutes, 150 µL of PBS was added again, followed by washing at least twice by shaking at room temperature for 5 minutes. The plate was scanned using a Li-COR Odyssey machine with the wells filled with PBS. IC50 values were calculated by fitting a dose-response curve using a 4-parameter model of Prism (Graphpad) software.

[4] = kinase reaction 120 minutes, 33P-gamma-ATP, read-out: CDK13 IC50
[5] = kinase reaction 120 minutes, 33P-gamma-ATP, read-out: CDK12 IC50

T1 sequence (Q9NYV4 whole entry, species assumed): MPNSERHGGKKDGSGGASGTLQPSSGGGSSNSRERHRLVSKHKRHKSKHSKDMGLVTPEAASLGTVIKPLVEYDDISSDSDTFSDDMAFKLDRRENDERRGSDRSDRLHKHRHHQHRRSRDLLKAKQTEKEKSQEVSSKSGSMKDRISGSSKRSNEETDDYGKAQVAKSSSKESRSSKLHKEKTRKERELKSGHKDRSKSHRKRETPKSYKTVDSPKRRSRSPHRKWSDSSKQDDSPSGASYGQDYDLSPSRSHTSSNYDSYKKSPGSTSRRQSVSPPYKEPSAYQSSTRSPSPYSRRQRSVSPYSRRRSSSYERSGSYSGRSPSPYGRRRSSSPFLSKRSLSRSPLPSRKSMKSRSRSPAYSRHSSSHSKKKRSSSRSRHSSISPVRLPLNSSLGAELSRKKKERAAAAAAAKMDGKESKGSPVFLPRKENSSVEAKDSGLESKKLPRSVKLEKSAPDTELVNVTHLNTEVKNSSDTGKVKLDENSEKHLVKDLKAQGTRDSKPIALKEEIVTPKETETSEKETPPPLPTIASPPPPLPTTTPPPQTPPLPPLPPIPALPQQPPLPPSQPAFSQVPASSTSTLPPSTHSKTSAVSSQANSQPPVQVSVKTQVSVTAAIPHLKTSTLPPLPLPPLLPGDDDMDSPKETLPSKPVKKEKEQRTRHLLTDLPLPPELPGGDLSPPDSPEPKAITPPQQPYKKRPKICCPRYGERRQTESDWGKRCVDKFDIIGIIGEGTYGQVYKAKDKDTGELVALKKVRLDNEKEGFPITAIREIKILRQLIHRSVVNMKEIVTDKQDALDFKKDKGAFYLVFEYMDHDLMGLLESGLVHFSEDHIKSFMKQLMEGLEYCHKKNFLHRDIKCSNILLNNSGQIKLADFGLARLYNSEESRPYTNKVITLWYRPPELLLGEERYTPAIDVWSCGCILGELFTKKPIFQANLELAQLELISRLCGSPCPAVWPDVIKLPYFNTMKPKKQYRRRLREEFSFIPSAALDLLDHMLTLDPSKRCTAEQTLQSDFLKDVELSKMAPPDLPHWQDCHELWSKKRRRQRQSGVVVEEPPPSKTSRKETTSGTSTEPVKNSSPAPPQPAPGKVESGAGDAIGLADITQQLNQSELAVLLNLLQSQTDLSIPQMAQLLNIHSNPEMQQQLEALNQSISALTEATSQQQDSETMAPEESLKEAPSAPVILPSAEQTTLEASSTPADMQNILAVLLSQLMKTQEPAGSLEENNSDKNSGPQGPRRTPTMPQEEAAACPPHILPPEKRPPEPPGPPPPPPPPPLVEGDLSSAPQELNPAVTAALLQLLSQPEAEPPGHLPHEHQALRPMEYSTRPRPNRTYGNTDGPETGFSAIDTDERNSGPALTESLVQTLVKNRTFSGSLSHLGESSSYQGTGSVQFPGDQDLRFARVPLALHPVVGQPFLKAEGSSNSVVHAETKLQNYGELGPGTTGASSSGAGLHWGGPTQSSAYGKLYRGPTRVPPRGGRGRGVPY
T1 sequence (O75909 whole entry partner, species assumed): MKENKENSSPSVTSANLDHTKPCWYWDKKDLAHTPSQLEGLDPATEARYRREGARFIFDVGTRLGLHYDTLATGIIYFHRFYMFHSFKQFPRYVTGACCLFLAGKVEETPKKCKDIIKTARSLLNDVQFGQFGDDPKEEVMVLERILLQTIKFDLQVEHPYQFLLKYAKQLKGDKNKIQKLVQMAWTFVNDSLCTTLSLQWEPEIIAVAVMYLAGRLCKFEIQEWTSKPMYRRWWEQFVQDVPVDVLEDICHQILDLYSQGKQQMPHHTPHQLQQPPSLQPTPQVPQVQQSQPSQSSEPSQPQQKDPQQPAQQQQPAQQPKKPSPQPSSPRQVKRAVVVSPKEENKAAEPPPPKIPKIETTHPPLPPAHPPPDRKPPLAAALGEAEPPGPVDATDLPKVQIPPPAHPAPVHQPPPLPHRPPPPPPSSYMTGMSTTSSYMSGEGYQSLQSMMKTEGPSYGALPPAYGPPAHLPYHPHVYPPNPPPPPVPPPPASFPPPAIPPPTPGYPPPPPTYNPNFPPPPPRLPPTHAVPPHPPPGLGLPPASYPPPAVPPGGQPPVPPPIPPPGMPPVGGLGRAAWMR
Chain of CDK13 (Q14004 whole entry, species assumed): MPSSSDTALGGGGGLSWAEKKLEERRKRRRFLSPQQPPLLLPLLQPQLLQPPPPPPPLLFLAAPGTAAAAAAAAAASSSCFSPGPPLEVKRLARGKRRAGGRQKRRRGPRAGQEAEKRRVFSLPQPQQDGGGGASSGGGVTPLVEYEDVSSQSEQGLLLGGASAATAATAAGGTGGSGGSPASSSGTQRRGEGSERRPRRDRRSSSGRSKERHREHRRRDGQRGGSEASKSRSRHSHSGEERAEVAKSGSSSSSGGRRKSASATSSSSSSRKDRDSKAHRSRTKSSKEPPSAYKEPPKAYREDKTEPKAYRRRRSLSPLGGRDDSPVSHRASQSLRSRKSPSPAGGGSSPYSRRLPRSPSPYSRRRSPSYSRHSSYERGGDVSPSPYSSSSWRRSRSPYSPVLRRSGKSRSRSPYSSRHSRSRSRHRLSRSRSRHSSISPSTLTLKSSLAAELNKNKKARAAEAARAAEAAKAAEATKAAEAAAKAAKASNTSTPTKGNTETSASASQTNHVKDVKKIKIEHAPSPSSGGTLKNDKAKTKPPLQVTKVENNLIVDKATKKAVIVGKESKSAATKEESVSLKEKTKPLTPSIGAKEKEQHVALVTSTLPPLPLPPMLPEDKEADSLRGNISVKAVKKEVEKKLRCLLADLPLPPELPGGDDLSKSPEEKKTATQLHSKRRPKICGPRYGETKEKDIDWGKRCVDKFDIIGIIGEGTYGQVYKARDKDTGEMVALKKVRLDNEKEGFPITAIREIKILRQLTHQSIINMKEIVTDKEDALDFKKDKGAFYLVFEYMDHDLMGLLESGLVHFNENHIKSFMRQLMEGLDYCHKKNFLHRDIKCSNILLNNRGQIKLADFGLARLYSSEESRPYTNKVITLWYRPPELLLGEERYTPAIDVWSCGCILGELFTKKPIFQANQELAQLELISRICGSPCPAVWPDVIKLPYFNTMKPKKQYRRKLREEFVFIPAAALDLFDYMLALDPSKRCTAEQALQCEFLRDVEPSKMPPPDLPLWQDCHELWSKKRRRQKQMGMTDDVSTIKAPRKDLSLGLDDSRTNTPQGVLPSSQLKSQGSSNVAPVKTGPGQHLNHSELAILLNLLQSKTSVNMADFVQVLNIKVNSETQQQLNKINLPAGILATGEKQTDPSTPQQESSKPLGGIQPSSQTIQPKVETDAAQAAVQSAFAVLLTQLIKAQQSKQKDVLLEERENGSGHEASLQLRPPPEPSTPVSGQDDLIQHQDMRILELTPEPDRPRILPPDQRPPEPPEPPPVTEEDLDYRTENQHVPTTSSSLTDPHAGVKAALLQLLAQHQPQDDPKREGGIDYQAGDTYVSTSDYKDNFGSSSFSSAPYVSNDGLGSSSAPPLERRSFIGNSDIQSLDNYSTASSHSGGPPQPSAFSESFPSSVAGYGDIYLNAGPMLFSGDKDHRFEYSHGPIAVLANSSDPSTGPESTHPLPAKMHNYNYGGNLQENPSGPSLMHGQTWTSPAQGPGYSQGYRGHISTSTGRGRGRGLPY
Chain of CDK13 (O75909 whole entry partner, species assumed): as the sequence (O75909 whole entry partner, species assumed) above

SMILES	IC50 (CDK13; [4]) [nM]	IC50 [1] [nM]	IC50 (CDK12 [2]; [5]) [nM]	IC50 (CDK12 [3]) [nM]	IC50 (CDK13) [nM]	IC50 (CDK12 [2]) [nM]
Fc1ccc2nc(CNc3cc(N4CCOCC4)nn4c(Cl)cnc34)[nH]c2c1F [Example 27, 3-chloro-N-((6,7-difluoro-1H-benzo[d]imidazol-2-yl)methyl)-6-morpholinoimidazo[1,2-b]pyridazin-8-amine]	> 500	> 500		> 3000		> 500
N[C@@H]1CCN(c2cc(NCc3nc4ccc(F)c(F)c4[nH]3)c3ncc(C(F)(F)F)n3n2)C1 [Example 37]	< 100	≤ 50	< 100	< 300		
OC1CC2CCC(C1)N2c1cc(NCc2nc3cc(Cl)c(Cl)cc3[nH]2)c2ncc(C(F)(F)F)n2n1 (centres unmarked) [Example 101, 8-(8-(((5,6-dichloro-1H-benzo[d]imidazol-2-yl)methyl)amino)-3-(trifluoromethyl)imidazo[1,2-b]pyridazin-6-yl)-8-azabicyclo[3.2.1]octan-3-ol]	< 100	≤ 50	100 to 500	< 300		
FC(F)(F)c1cnc2c(NCc3nc4cc(Cl)c(Cl)cc4[nH]3)cc(N3CC(NC4CC4)C3)nn12 [Example 58, 6-(3-(cyclopropylamino)azetidin-1-yl)-N-((5,6-dichloro-1H-benzo[d]imidazol-2-yl)methyl)-3-(trifluoromethyl)imidazo[1,2-b]pyridazin-8-amine]	100 to 500	≤ 50	> 500	< 300		
CCc1cnc2c(NCc3nc4ccc(F)c(F)c4[nH]3)cc(N3CCOCC3)nn12 [Example 5, N-((6,7-difluoro-1H-benzo[d]imidazol-2-yl)methyl)-3-ethyl-6-morpholinoimidazo[1,2-b]pyridazin-8-amine]	< 100	50 to 500	100 to 500	300 to 3000		

More lines, main results first:

IC50 (CDK13; [4]) [nM]	IC50 [1] [nM]	IC50 (CDK12 [2]; [5]) [nM]	IC50 (CDK12 [3]) [nM]	IC50 (CDK13) [nM]	SMILES	IC50 (CDK12 [2]) [nM]
< 100	≤ 50	< 100	< 300		Cc1cc2[nH]c(CNc3cc(N4CCOCC4)nn4c(C(F)(F)F)cnc34)nc2cc1C(F)(F)F [Example 80, N-((6-methyl-5-(trifluoromethyl)-1H-benzo[d]imidazol-2-yl)methyl)-6-morpholino-3-(trifluoromethyl)imidazo[1,2-b]pyridazin-8-amine]	
< 100	≤ 50	< 100	< 300		NC1CCN(c2cc(NCc3nc4cc(F)c(F)cc4[nH]3)c3ncc(C(F)(F)F)n3n2)CC1 [Example 111, 6-(4-aminopiperidin-1-yl)-N-((5,6-difluoro-1H-benzo[d]imidazol-2-yl)methyl)-3-(trifluoromethyl)imidazo[1,2-b]pyridazin-8-amine]	
	> 500	< 100	> 3000	< 100	FC(F)(F)c1cnc2c(NCc3cc4ncccn4n3)cc(N3CCOCC3)nn12 [Example 89, 6-morpholino-N-(pyrazolo[1,5-a]pyrimidin-2-ylmethyl)-3-(trifluoromethyl)imidazo[1,2-b]pyridazin-8-amine]	
	50 to 500	100 to 500	300 to 3000	< 100	OCC1CN(c2cc(NCc3nc4cc(Cl)c(Cl)cc4[nH]3)c3ncc(C(F)(F)F)n3n2)C1 [Example 60, (1-(8-(((5,6-dichloro-1H-benzo[d]imidazol-2-yl)methyl)amino)-3-(trifluoromethyl)imidazo[1,2-b]pyridazin-6-yl)azetidin-3-yl)methanol]	
< 100	≤ 50	< 100	< 300		CN1CCN(c2cc(NCc3nc4cc(F)c(F)cc4[nH]3)c3ncc(C(F)(F)F)n3n2)CC1 [Example 110, N-((5,6-difluoro-1H-benzo[d]imidazol-2-yl)methyl)-6-(4-methylpiperazin-1-yl)-3-(trifluoromethyl)imidazo[1,2-b]pyridazin-8-amine]	
	50 to 500	< 100	300 to 3000	< 100	FC(F)(F)c1cnc2c(NCc3cc4cccnc4[nH]3)cc(N3CCOCC3)nn12 [Example 84, N-((1H-pyrrolo[2,3-b]pyridin-2-yl)methyl)-6-morpholino-3-(trifluoromethyl)imidazo[1,2-b]pyridazin-8-amine]	
